Experimental data as given in US12226523B2, “Method for preparing self-assembled nanoparticle releasing soluble microneedle structure” (RESEARCH & BUSINESS FOUNDATION SUNGKYUNKWAN UNIVERSITY, priority 2016, dated 2025).

Tested on: cells (HCT-116)
Assay: Intracellular delivery of nanoparticles produced from soluble microneedles (confocal fluorescence microscope)
Assay type: cell-based
Details: HCT-116 cells, 4 hours after treatment
Experimental: To this end, soluble microneedles in which a hydrophobic fluorescent material, DiD (Invitrogen, Carlsbad, CA, USA), used in cell membrane staining, was loaded were manufactured according to the method described in Example 1. Afterward, cells (HCT-116) were treated with a solution in which the microneedles were dissolved according to the method of Example 2, 4 hours later, intracellular delivery of nanoparticles produced from the soluble microneedles was observed using a confocal fluorescence microscope.

CCCCCCCCCCCCCCCCCCN1C(=CC=CC=CC2=[N+](CCCCCCCCCCCCCCCCCC)c3ccccc3C2(C)C)C(C)(C)c2ccccc21.[I-] [DiD, 1,1′-dioctadecyl-3,3,3′,3′-tetramethylindodicarbocyanine iodide]
cellular localisation of the hydrophobic fluorescent material DiD: stained the cell membrane
